Our source for the carcinogen call values is PubChem BioAssay AID1259411 (Chemical Carcinogenesis Research Information System (CCRIS), 2018).

The subject of the data set is rodent carcinogenicity bioassays, tumor incidence. Nature of the data set: CCRIS carcinogenicity studies. The method, boiled down: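 Archive of carcinogenicity, mutagenicity, tumor promotion and tumor inhibition results drawn from journals, NCI reports and other sources, expert-reviewed; covers 1985-2011 and is no longer updated.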

The structures appear in SMILES notation. The source made the active and inactive calls. The rule behind the calls is not given here.

With `S=C1NCCN1`, the carcinogen call by setting is: (Species: MOUSE, Strain/Sex: B6AKF1/MALE,FEMALE, Route: GAVAGE/ORAL, Dose: 215 MG/KG IN GELATIN FROM DAY 7-28 OF LIFE THEN 646 PPM IN DIET, Tumor Site: Type of Lesion: LIVER: HEPATOMA, LYMPHATIC SYSTEM: LYMPHOMA) “active; positive”; (Species: MOUSE, Strain/Sex: B6C3F1/FEMALE, Route: ORAL, Dose: 0, 100, 330, 1000 PPM IN FEED FOR 24 MO, ADMINISTRATION BEGUN AT 8 WK OF AGE TO ANIMALS EXPOSED PERINATALLY BY ORAL, Dose: 0, 100, 330, 1000 PPM IN FEED FOR 24 MO, ADMINISTRATION BEGUN AT 8 WK OF AGE TO ANIMALS EXPOSED PERINATALLY BY ORAL, Tumor Site: Type of Lesion: LIVER: HEPATOCELLULAR ADENOMA, HEPATOCELLULAR CARCINOMA, PITUITARY GLAND, PARS DISTALIS: ADENOMA, THYROID GLAND: FOLLICU, Tumor Site: Type of Lesion: LIVER: HEPATOCELLULAR ADENOMA, HEPATOCELLULAR CARCINOMA, PITUITARY GLAND, PARS DISTALIS: ADENOMA, THYROID GLAND: FOLLICU) “active; positive”; (Species: MOUSE, Strain/Sex: B6C3F1/FEMALE, Route: ORAL, Dose: 0, 330, 1000 PPM IN FEED FOR 24 MO (STUDY DURATION: 2 YR), Dose: 0, 330, 1000 PPM IN FEED FOR 24 MO (STUDY DURATION: 2 YR), Tumor Site: Type of Lesion: LIVER: HEPATOCELLULAR ADENOMA, HEPATOCELLULAR CARCINOMA, PITUITARY GLAND, PARS DISTALIS: ADENOMA, THYROID GLAND: FOLLICU, Tumor Site: Type of Lesion: LIVER: HEPATOCELLULAR ADENOMA, HEPATOCELLULAR CARCINOMA, PITUITARY GLAND, PARS DISTALIS: ADENOMA, THYROID GLAND: FOLLICU) “active; positive”; (Species: MOUSE, Strain/Sex: B6C3F1/MALE,FEMALE, Route: GAVAGE/ORAL, Dose: 215 MG/KG IN GELATIN FROM DAY 7-28 OF LIFE THEN 646 PPM IN DIET, Tumor Site: Type of Lesion: LIVER: HEPATOMA, LYMPHATIC SYSTEM: LYMPHOMA) “active; positive”; (Species: MOUSE, Strain/Sex: B6C3F1/MALE, Route: ORAL, Dose: 0, 100, 330, 1000 PPM IN FEED FOR 24 MO, ADMINISTRATION BEGUN AT 8 WK OF AGE TO ANIMALS EXPOSED PERINATALLY BY ORAL, Dose: 0, 100, 330, 1000 PPM IN FEED FOR 24 MO, ADMINISTRATION BEGUN AT 8 WK OF AGE TO ANIMALS EXPOSED PERINATALLY BY ORAL, Tumor Site: Type of Lesion: LIVER: HEPATOCELLULAR CARCINOMA, HEPATOCELLULAR ADENOMA OR CARCINOMA, THYROID GLAND: FOLLICULAR CELL ADENOMA, FOLLICULAR) “active; positive”; (Species: MOUSE, Strain/Sex: B6C3F1/MALE, Route: ORAL, Dose: 0, 330, 1000 PPM IN FEED FOR 24 MO (STUDY DURATION: 2 YR), Dose: 0, 330, 1000 PPM IN FEED FOR 24 MO (STUDY DURATION: 2 YR), Tumor Site: Type of Lesion: LIVER: HEPATOCELLULAR CARCINOMA, PITUITARY GLAND, PARS DISTALIS: ADENOMA, THYROID GLAND: FOLLICULAR CELL ADENOMA, Tumor Site: Type of Lesion: LIVER: HEPATOCELLULAR CARCINOMA, PITUITARY GLAND, PARS DISTALIS: ADENOMA, THYROID GLAND: FOLLICULAR CELL ADENOMA) “active; positive”. In addition, the carcinogen call is, setting by setting: (Species: RAT, Strain/Sex: F344/FEMALE, Route: ORAL, Dose: 0, 25, 83, 250 PPM IN FEED FOR 24 MO, ADMINISTRATION BEGUN AT 8 WK OF AGE TO ANIMALS EXPOSED PERINATALLY BY ORAL DOS, Dose: 0, 25, 83, 250 PPM IN FEED FOR 24 MO, ADMINISTRATION BEGUN AT 8 WK OF AGE TO ANIMALS EXPOSED PERINATALLY BY ORAL DOS, Tumor Site: Type of Lesion: THYROID GLAND: FOLLICULAR CELL ADENOMA, FOLLICULAR CELL CARCINOMA) “active; positive”; (Species: RAT, Strain/Sex: F344/FEMALE, Route: ORAL, Dose: 0, 83, 250 PPM IN FEED FOR 24 MO (STUDY DURATION: 2 YR), Dose: 0, 83, 250 PPM IN FEED FOR 24 MO (STUDY DURATION: 2 YR), Tumor Site: Type of Lesion: THYROID GLAND: FOLLICULAR CELL ADENOMA, FOLLICULAR CELL CARCINOMA) “active; positive”; (Species: RAT, Strain/Sex: F344/MALE, Route: ORAL, Dose: 0, 25, 83, 250 PPM IN FEED FOR 24 MO, ADMINISTRATION BEGUN AT 8 WK OF AGE TO ANIMALS EXPOSED PERINATALLY BY DOSES TO, Dose: 0, 25, 83, 250 PPM IN FEED FOR 24 MO, ADMINISTRATION BEGUN AT 8 WK OF AGE TO ANIMALS EXPOSED PERINATALLY BY DOSES TO, Tumor Site: Type of Lesion: THYROID GLAND: FOLLICULAR CELL ADENOMA, FOLLICULAR CELL CARCINOMA) “active; positive”; (Species: RAT, Strain/Sex: F344/MALE, Route: ORAL, Dose: 0, 83, 250 PPM IN FEED FOR 24 MO (STUDY DURATION: 2 YR), Dose: 0, 83, 250 PPM IN FEED FOR 24 MO (STUDY DURATION: 2 YR), Tumor Site: Type of Lesion: THYROID GLAND: FOLLICULAR CELL ADENOMA, FOLLICULAR CELL CARCINOMA) “active; positive”; (Species: RAT, Strain/Sex: STRAIN-CD/MALE,FEMALE, Route: ORAL, Dose: 175, 350 PPM IN DIET FOR 78 WK, Tumor Site: Type of Lesion: THYROID GLAND: FOLLICULAR CARCINOMA) “active; positive”.
Regarding `CC/C(=C(\c1ccc(O)cc1)c1ccc(OCCN(C)C)cc1)c1ccccc1`, for the setting “Species: RAT, Strain/Sex: SPRAGUE-DAWLEY/FEMALE, Route: DERMAL, Dose: 0, 20, 140, 1000 UG/KG/D FOR 101 WK (STUDY DURATION: 101 WK), Dose: 0, 20, 140, 1000 UG/KG/D FOR 101 WK (STUDY DURATION: 101 WK)”, the carcinogen call is “inactive; negative”.
Take `[O]=[Cr](=[O])([OH])[O][Cr](=[O])(=[O])[OH]`: the carcinogen call was “active; positive, authors describe as clear evidence of carcinogenic activity” (Species: Mouse, Strain/Sex: B6C3F1/Female, Route: Oral, Dose: 0, 14.3, 57.3, 172, 516 mg/l of water, in drinking water for 2 yr (average daily dose of 0, 1.1, 3.9, 9, and 25 mg/kg), Tumor Site: Type of Lesion: Small intestine (duodenum, jejunum, ileum): Adenomas and carcinomas); “active; positive, authors describe as clear evidence of carcinogenic activity” (Species: Mouse, Strain/Sex: B6C3F1/Male, Route: Oral, Dose: 0, 14.3, 28.6, 85.7, 257.4 mg/l of water, in drinking water for 2 yr (average daily dose of 0, 1.1, 2.6, 7, and 17 mg/kg, Tumor Site: Type of Lesion: Small intestine (duodenum, jejunum, ileum): Adenomas and carcinomas); “active; positive, authors describe as clear evidence of carcinogenic activity” (Species: Rat, Strain/Sex: F344/N/Female, Route: Oral, Dose: 0, 14.3, 57.3, 172, 516 mg/l of water, in drinking water for 2 yr (average daily dose of 0, 0.7, 2.7, 7, and 20 mg/kg), Tumor Site: Type of Lesion: Mouth and tongue: Squamous cell papilloma and carcinoma); “active; positive, authors describe as clear evidence of carcinogenic activity” (Species: Rat, Strain/Sex: F344/N/Male, Route: Oral, Dose: 0, 14.3, 57.3, 172, 516 mg/l of water, in drinking water for 2 yr (average daily dose of 0, 0.6, 2.2, 6, and 17 mg/kg), Tumor Site: Type of Lesion: Mouth and tongue: Squamous cell papilloma and carcinoma).
`CNC(=S)N(C)C`: the carcinogen call (Species: MOUSE, Strain/Sex: B6C3F1/FEMALE, Route: ORAL, Dose: 0, 500, 1000 PPM IN DIET, Dose: 0, 500, 1000 PPM IN DIET) was “inactive; negative”; the carcinogen call (Species: MOUSE, Strain/Sex: B6C3F1/MALE, Route: ORAL, Dose: 0, 500, 1000 PPM IN DIET, Dose: 0, 500, 1000 PPM IN DIET) was “inactive; negative”; the carcinogen call (Species: RAT, Strain/Sex: F344/FEMALE, Route: ORAL, Dose: 0, 250, 500 PPM IN DIET, Dose: 0, 250, 500 PPM IN DIET, Tumor Site: Type of Lesion: THYROID GLAND: FOLLICULAR CELL CARCINOMA OR ADENOMA) was “active; positive”; the carcinogen call (Species: RAT, Strain/Sex: F344/MALE, Route: ORAL, Dose: 0, 250, 500 PPM IN DIET, Dose: 0, 250, 500 PPM IN DIET) is “inactive; negative”.
On to `CCOc1ccc(NC(C)=O)cc1[N+](=O)[O-]`, for which the carcinogen call was “inactive; negative” (Species: MOUSE, Strain/Sex: B6C3F1/FEMALE, Route: ORAL, Dose: 0, 0.73, 1.46% OF DIET, TWA, Dose: 0, 0.73, 1.46% OF DIET, TWA); “active; positive” (Species: MOUSE, Strain/Sex: B6C3F1/MALE, Route: ORAL, Dose: 0, 0.73, 1.46% OF DIET, TWA, Dose: 0, 0.73, 1.46% OF DIET, TWA, Tumor Site: Type of Lesion: LIVER: HEPATOCELLULAR CARCINOMA OR ADENOMA); “inactive; negative” (Species: RAT, Strain/Sex: F344/FEMALE, Route: ORAL, Dose: 0, 0.18, 0.36% OF DIET, TWA, Dose: 0, 0.18, 0.36% OF DIET, TWA); “inactive; negative” (Species: RAT, Strain/Sex: F344/MALE, Route: ORAL, Dose: 0, 0.18, 0.36% OF DIET, TWA, Dose: 0, 0.18, 0.36% OF DIET, TWA).
